≈ marks a conversion by molar mass, not a printed value. A value given as a limit tells only on which side of the number the result lay.

Format in all cases: functional
For test [1], the system named is Mycobacterium tuberculosis. Description: Antimycobacterial activity against 3-cyclopropyl-1-phenyl-5-((3-(trifluoromethyl)benzylamino)-methyl)-1H-pyrazolo[3,4-b]pyridin-6(7H)-one-resistant Mycobacterium tuberculosis clone 8.3 assessed as growth inhibition by resazurin assay. To be noted: clone 8.3, 7 h.
Test [2] concerns Mycobacterium tuberculosis. Description: Antimycobacterial activity against Mycobacterium tuberculosis overexpressing DprE1 assessed as growth inhibition by resazurin assay.
Test [3] has as its system Mycobacterium tuberculosis. In words: Antimycobacterial activity against 3-cyclopropyl-1-phenyl-5-((3-(trifluoromethyl)benzylamino)-methyl)-1H-pyrazolo[3,4-b]pyridin-6(7H)-one-resistant Mycobacterium tuberculosis clone 8.1 assessed as growth inhibition by resazurin assay. The note with it: clone 8.1, 7 h.
For test [4], the system named is Mycobacterium tuberculosis. In words: Antimycobacterial activity against ofloxacin-resistant Mycobacterium tuberculosis 12119 assessed as growth inhibition after 2 to 3 weeks by turbidometry.
For test [5], the system named is Mycobacterium tuberculosis. Description: Antimycobacterial activity against BTZ043-resistant Mycobacterium tuberculosis harboring DprE1 C-G mutant assessed as growth inhibition by resazurin assay.
The subject of test [6] is Mycobacterium tuberculosis. Description: Antimycobacterial activity against streptomycin-resistant Mycobacterium tuberculosis 136570 assessed as growth inhibition after 2 to 3 weeks by turbidometry.
Test [7] deals with Mycobacterium tuberculosis. In words: Antimycobacterial activity against rifampin-resistant Mycobacterium tuberculosis 19000 assessed as growth inhibition after 2 to 3 weeks by turbidometry.
Test [8] deals with Mycobacterium tuberculosis. In words: Antimycobacterial activity against ethambutol-resistant Mycobacterium tuberculosis 17003 assessed as growth inhibition after 2 to 3 weeks by turbidometry.
The subject of test [9] is Mycobacterium tuberculosis. Description: Antimycobacterial activity against 3-cyclopropyl-1-phenyl-5-((3-(trifluoromethyl)benzylamino)-methyl)-1H-pyrazolo[3,4-b]pyridin-6(7H)-one-resistant Mycobacterium tuberculosis clone 8.2 assessed as growth inhibition by resazurin assay. The note with it: clone 8.2, 7 h.
Test [10] has as its system Mycobacterium tuberculosis. Description: Antimycobacterial activity against isoniazid-resistant Mycobacterium tuberculosis 912253 assessed as growth inhibition after 2 to 3 weeks by turbidometry.
Test [11] relates to Mycobacterium tuberculosis. In words: Antimycobacterial activity against BTZ043-resistant Mycobacterium tuberculosis harboring DprE1 C-S mutant assessed as growth inhibition by resazurin assay.

As for `Cc1nn(-c2ccccc2)c2[nH]c(=O)c(CNCc3cccc(C(F)(F)F)c3)cc12`, the MIC in test [1] was 0.2 µM (≈ 0.0825 µg/mL); in test [2], 2.5 µM (≈ 1.03 µg/mL); in test [3], > 100 µM; in [4], 1.6 µM (≈ 0.66 µg/mL); in [5] it was 0.3 µM (≈ 0.124 µg/mL); in test [6] it was 3.1 µM (≈ 1.28 µg/mL). The MIC in test [7] is 3.1 µM (≈ 1.28 µg/mL); in test [8] it was 3.1 µM (≈ 1.28 µg/mL); in [9], 100 µM (≈ 41.2 µg/mL); in [10], 6.2 µM (≈ 2.56 µg/mL); in [11] it was 100 µM (≈ 41.2 µg/mL).
For the compound `O=c1[nH]c2c(cc1CNCc1cccc(C(F)(F)F)c1)c(C1CC1)nn2-c1ccccc1`, the MIC was 0.2 µM (≈ 0.0877 µg/mL) in [1]; 0.6 µM (≈ 0.263 µg/mL) in [2]; 50 µM (≈ 21.9 µg/mL) in test [3]; 1.6 µM (≈ 0.702 µg/mL) in test [4]; 50 µM (≈ 21.9 µg/mL) in test [5]; 1.6 µM (≈ 0.702 µg/mL) in test [6]. For the same compound, the MIC in [7] was 1.6 µM (≈ 0.702 µg/mL); in test [8], 1.6 µM (≈ 0.702 µg/mL); in [9] it was 0.1 µM (≈ 0.0438 µg/mL); in test [10], 3.1 µM (≈ 1.36 µg/mL); in test [11], >100 µM.
`O=c1[nH]c2c(cc1CNCc1cccc(C(F)(F)F)n1)c(C1CC1)nn2-c1ccccc1`: the MIC in test [1] is 0.2 µM (≈ 0.0879 µg/mL); in test [2], 50 µM (≈ 22 µg/mL); in test [3], 1.2 µM (≈ 0.527 µg/mL); in [5] it was 100 µM (≈ 43.9 µg/mL); in test [9], > 100 µM; in test [11], 100 µM (≈ 43.9 µg/mL).
Consider `O=c1[nH]c2c(cc1CNCc1cc(C(F)(F)F)ccc1F)c(C1CC1)nn2-c1ccccc1`, for which the MIC in test [1] came to 0.2 µM (≈ 0.0913 µg/mL); in [2], 100 µM (≈ 45.6 µg/mL); in test [3], 100 µM (≈ 45.6 µg/mL); in test [5], 25 µM (≈ 11.4 µg/mL); in [9] it was 0.08 µM (≈ 0.0365 µg/mL); in test [11], 1.2 µM (≈ 0.548 µg/mL).
On to `O=c1[nH]c2c(cc1CNCc1cccc(C(F)(F)F)c1F)c(C1CC1)nn2-c1ccccc1`, for which the MIC is 0.2 µM (≈ 0.0913 µg/mL) in test [1]; 25 µM (≈ 11.4 µg/mL) in test [2]; 0.6 µM (≈ 0.274 µg/mL) in test [3]; 1.2 µM (≈ 0.548 µg/mL) in test [5]; 0.04 µM (≈ 0.0183 µg/mL) in [9]; >100 µM in test [11].
In the case of `Cc1ccc(C(F)(F)F)cc1CNCc1cc2c(C3CC3)nn(-c3ccccc3)c2[nH]c1=O`, the MIC in test [1] is 0.2 µM (≈ 0.0905 µg/mL); in test [2], 1.2 µM (≈ 0.543 µg/mL); in test [3], 0.3 µM (≈ 0.136 µg/mL); in [5], >100 µM; in [9], > 100 µM; in test [11] it was 0.3 µM (≈ 0.136 µg/mL).
For the compound `C[C@H]1COC2(CCN(c3nc(=O)c4cc(C(F)(F)F)cc([N+](=O)[O-])c4s3)CC2)O1` [BTZ-043], the MIC in test [1] was 12.5 µM (≈ 5.39 µg/mL); in test [2] it was > 100 µM; in test [3], > 100 µM; in [5] it was 0.6 µM (≈ 0.259 µg/mL); in test [9] it was 100 µM (≈ 43.1 µg/mL); in test [11], 0.3 µM (≈ 0.129 µg/mL).
With `CC[C@@H](CO)NCCN[C@@H](CC)CO` [ETHAMBUTOL], the MIC was 2 µM (≈ 0.409 µg/mL) in [4]; 2 µM (≈ 0.409 µg/mL) in test [6]; 2 µM (≈ 0.409 µg/mL) in test [7]; > 20 µM in [8]; 2 µM (≈ 0.409 µg/mL) in [10].
Regarding `NNC(=O)c1ccncc1` [ISONIAZID], the MIC in test [1] turned out to be 0.2 µM (≈ 0.0274 µg/mL); in [2], 100 µM (≈ 13.7 µg/mL); in [3], 100 µM (≈ 13.7 µg/mL); in test [4], 0.2 µM (≈ 0.0274 µg/mL); in test [5] it was 0.3 µM (≈ 0.0411 µg/mL); in test [6] it was 0.2 µM (≈ 0.0274 µg/mL). For the same compound, the MIC in test [7] was 0.2 µM (≈ 0.0274 µg/mL); in test [8] it was 0.2 µM (≈ 0.0274 µg/mL); in [9] it was > 100 µM; in test [10], > 29 µM; in test [11] it was 0.1 µM (≈ 0.0137 µg/mL).
On to `CC1COc2c(N3CCN(C)CC3)c(F)cc3c(=O)c(C(=O)O)cn1c23` (stereo not drawn) [OFLOXACIN], for which the MIC is > 5 µM in [4]; 0.7 µM (≈ 0.253 µg/mL) in test [6]; 0.7 µM (≈ 0.253 µg/mL) in [7]; 0.7 µM (≈ 0.253 µg/mL) in test [8]; 0.7 µM (≈ 0.253 µg/mL) in test [10].
In the case of `CO[C@H]1/C=C/O[C@@]2(C)Oc3c(C)c(O)c4c(O)c(c(/C=N/N5CCN(C)CC5)c(O)c4c3C2=O)NC(=O)/C(C)=C\C=C\[C@H](C)[C@H](O)[C@@H](C)[C@@H](O)[C@@H](C)[C@H](OC(C)=O)[C@@H]1C` [RIFAMPIN], the MIC was 0.02 µM (≈ 0.0165 µg/mL) in test [4]; 0.02 µM (≈ 0.0165 µg/mL) in [6]; > 5 µM in test [7]; 0.02 µM (≈ 0.0165 µg/mL) in test [8]; 0.02 µM (≈ 0.0165 µg/mL) in test [10].
Take `CN[C@@H]1[C@H](O[C@H]2[C@H](O[C@H]3[C@H](O)[C@@H](O)[C@H](N=C(N)N)[C@@H](O)[C@@H]3N=C(N)N)O[C@@H](C)[C@]2(O)C=O)O[C@@H](CO)[C@H](O)[C@H]1O` [STREPTOMYCIN]: the MIC is 0.3 µM (≈ 0.174 µg/mL) in [4]; > 5 µM in test [6]; 0.3 µM (≈ 0.174 µg/mL) in test [7]; 0.3 µM (≈ 0.174 µg/mL) in test [8]; 0.3 µM (≈ 0.174 µg/mL) in [10].

Values taken from ChEMBL document CHEMBL3259779, “Discovery of pyrazolopyridones as a novel class of noncovalent DprE1 inhibitor with potent anti-mycobacterial activity” (J Med Chem, 2014).
